Results on 20 molecules are retold here after patent US9346815B2, “5-chloro-2-difluoromethoxyphenyl pyrazolopyrimidine compounds, compositions and methods of use thereof” (Genentech, Inc., priority 2014, dated 2016).

Assay [1] has as its system JAK1-dependent STAT6 phosphorylation downstream of IL-13 stimulation in BEAS-2B human bronchial epithelial cells. Briefly: JAK1 pathway assay in BEAS-2B cells (IL-13-pSTAT6, MSD). Type of assay: cell-based. Particulars: read-out: IL13-pSTAT6 EC50 (uM)_BEAS-2B. In a few lines: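 BEAS-2B: 1 h, complete growth medium, 100,000 cells/well. TF-1: 30 min, serum-free OptiMEM after overnight GM-CSF starvation, 300,000 cells/well. EC50 reported.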

Assay [2] addresses isolated recombinant JAK1 kinase domain (Homo sapiens (Human), UniProt P23458). Kind of assay: JAK1 enzyme assay (Caliper LabChip, peptide phosphorylation). Type of assay: biochemical. As to conditions: isolated recombinant JAK1 kinase domain, 25 μM ATP.
Assay [3] concerns the target isolated recombinant JAK2 kinase domain (Homo sapiens (Human), UniProt O60674). Briefly: JAK2 enzyme assay (Caliper LabChip, peptide phosphorylation). Type of assay: biochemical. Particulars: 25 μM ATP.

Sequence of isolated recombinant JAK1 kinase domain (P23458 875-1153): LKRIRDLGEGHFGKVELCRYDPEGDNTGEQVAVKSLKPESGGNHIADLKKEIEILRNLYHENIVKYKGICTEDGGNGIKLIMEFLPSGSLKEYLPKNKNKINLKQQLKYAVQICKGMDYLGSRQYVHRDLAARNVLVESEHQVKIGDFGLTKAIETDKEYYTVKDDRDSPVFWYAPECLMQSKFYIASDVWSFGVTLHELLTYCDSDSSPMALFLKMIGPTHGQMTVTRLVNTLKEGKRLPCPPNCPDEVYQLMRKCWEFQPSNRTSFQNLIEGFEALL
Sequence of isolated recombinant JAK2 kinase domain (O60674 849-1124): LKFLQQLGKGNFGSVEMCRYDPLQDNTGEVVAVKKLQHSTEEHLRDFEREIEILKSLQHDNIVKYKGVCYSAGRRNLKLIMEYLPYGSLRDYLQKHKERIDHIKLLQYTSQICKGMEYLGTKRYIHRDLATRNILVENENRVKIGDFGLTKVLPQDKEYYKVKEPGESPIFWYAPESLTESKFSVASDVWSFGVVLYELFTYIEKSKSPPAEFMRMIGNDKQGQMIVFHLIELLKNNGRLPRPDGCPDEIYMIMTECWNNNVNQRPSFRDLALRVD

As usually defined, the EC50 is the concentration needed to bring the measured effect to its halfway point. A word on the Ki: it is a dissociation constant, usually derived from enzyme kinetics or from competition with a known ligand. Turning to `O=C(Nc1cn(CC(=O)N2CCC(C(=O)N3CCNCC3)CC2)nc1-c1cc(Cl)ccc1OC(F)F)c1cnn2cccnc12` [Example 408, N-(3-(5-chloro-2-(difluoromethoxy)phenyl)-1-(2-oxo-2-(4-(piperazine-1-carbonyl)piperidin-1-yl)ethyl)-1H-pyrazol-4-yl)pyrazolo[1,5-a]pyrimidine-3-carboxamide], the EC50 in assay [1] was 0.121 µM. Moreover, the results for the Ki in assay [2] and in assay [3] were 0.59 nM and 2.29 nM, respectively.
As to `O=C(Nc1cn(CC(=O)N2CCN(CCN3CCOCC3)CC2)nc1-c1cc(Cl)ccc1OC(F)F)c1cnn2cccnc12` [Example 321, N-[3-[5-chloro-2-(difluoromethoxy)phenyl]-1-(2-[4-[2-(morpholin-4-yl)ethyl]piperazin-1-yl]-2-oxoethyl)-1H-pyrazol-4-yl]pyrazolo[1,5-a]pyrimidine-3-carboxamide], in assay [1], the EC50 was 0.0133 µM. Further, the Ki came out at 0.4 nM in assay [2] and 0.9 nM in assay [3].
As for `O=C(Nc1cn(CC(=O)N2CCC(N3CCNCC3=O)CC2)nc1-c1cc(Cl)ccc1OC(F)F)c1cnn2cccnc12` [Example 445, N-(3-(5-chloro-2-(difluoromethoxy)phenyl)-1-(2-oxo-2-(4-(2-oxopiperazin-1-yl)piperidin-1-yl)ethyl)-1H-pyrazol-4-yl)pyrazolo[1,5-a]pyrimidine-3-carboxamide], in assay [1], the EC50 was 0.3 µM. The inhibition constant (Ki) in assay [2] was determined as 0.35 nM; in assay [3] it was 0.87 nM.
Take `CN(CCCC#N)C1CCN(C(=O)Cn2cc(NC(=O)c3cnn4cccnc34)c(-c3cc(Cl)ccc3OC(F)F)n2)CC1` [Example 464, N-(3-(5-chloro-2-(difluoromethoxy)phenyl)-1-(2-(4-((3-cyanopropyl)(methyl)amino)piperidin-1-yl)-2-oxoethyl)-1H-pyrazol-4-yl)pyrazolo[1,5-a]pyrimidine-3-carboxamide]: in assay [1], the EC50 was found to be 0.0095 µM. Further, the inhibitory constant (Ki) in assay [2] amounted to 0.49 nM; in assay [3], 1.41 nM.
For `C[C@@H](Cn1cc(NC(=O)c2cnn3cccnc23)c(-c2cc(Cl)ccc2OC(F)F)n1)N(C)C` [Example 370, N-[3-[5-chloro-2-(difluoromethoxy)phenyl]-1-[(2S)-2-(dimethylamino)propyl]-1H-pyrazol-4-yl]pyrazolo[1,5-a]pyrimidine-3-carboxamide] the same measures were 0.0402 µM, 1.37 nM and 1.37 nM.
For `CN(C)C(=O)[C@@H]1CCCN1CC1CCN(C(=O)Cn2cc(NC(=O)c3cnn4cccnc34)c(-c3cc(Cl)ccc3OC(F)F)n2)CC1` [Example 423, N-(3-(5-chloro-2-(difluoromethoxy)phenyl)-1-(2-(4-(((S)-2-(dimethylcarbamoyl)pyrrolidin-1-yl)methyl)piperidin-1-yl)-2-oxoethyl)-1H-pyrazol-4-yl)pyrazolo[1,5-a]pyrimidine-3-carboxamide] the same measures were 0.0312 µM, 0.73 nM and 2.79 nM.
On the same counts, the results for `CN1CCN(CC2CCN(C(=O)Cn3cc(NC(=O)c4cnn5cccnc45)c(-c4cc(Cl)ccc4OC(F)F)n3)CC2)CC1` [Example 350, N-[3-[5-chloro-2-(difluoromethoxy)phenyl]-1-(2-[4-[(4-methylpiperazin-1-yl)methyl]piperidin-1-yl]-2-oxoethyl)-1H-pyrazol-4-yl]pyrazolo[1,5-a]pyrimidine-3-carboxamide] are 0.0094 µM, 0.43 nM and 1.42 nM.
Consider `N#Cc1ccc(CN2CCN(C(=O)Cn3cc(NC(=O)c4cnn5cccnc45)c(-c4cc(Cl)ccc4OC(F)F)n3)CC2)cc1` [Example 238, N-[3-[5-chloro-2-(difluoromethoxy)phenyl]-1-[2-[4-[(4-cyanophenyl)methyl]piperazin-1-yl]-2-oxo-ethyl]pyrazol-4-yl]pyrazolo[1,5-a]pyrimidine-3-carboxamide], for which the EC50 in assay [1] was found to be 0.0218 µM. Besides, the Ki is 0.45 nM in assay [2] and 0.55 nM in assay [3].
With `CC1(CN2CCN(C(=O)Cn3cc(NC(=O)c4cnn5cccnc45)c(-c4cc(Cl)ccc4OC(F)F)n3)CC2)COC1` [Example 318, N-[3-[5-chloro-2-(difluoromethoxy)phenyl]-1-(2-[4-[(3-methyloxetan-3-yl)methyl]piperazin-1-yl]-2-oxoethyl)-1H-pyrazol-4-yl]pyrazolo[1,5-a]pyrimidine-3-carboxamide], in assay [1], the EC50 stood at 0.0283 µM. The Ki was 0.56 nM in assay [2] and 1.11 nM in assay [3].
Turning to `CN(CC(C)(C)C#N)C1CCN(C(=O)Cn2cc(NC(=O)c3cnn4cccnc34)c(-c3cc(Cl)ccc3OC(F)F)n2)CC1` [Example 465, N-(3-(5-chloro-2-(difluoromethoxy)phenyl)-1-(2-(4-((2-cyano-2-methylpropyl)(methyl)amino)piperidin-1-yl)-2-oxoethyl)-1H-pyrazol-4-yl)pyrazolo[1,5-a]pyrimidine-3-carboxamide], the EC50 in assay [1] came out at 0.0114 µM. The values for the Ki in assay [2] and in assay [3] were 0.24 nM and 0.56 nM, respectively.
For the molecule `CC(C)CN1CCN(C(=O)Cn2cc(NC(=O)c3cnn4cccnc34)c(-c3cc(Cl)ccc3OC(F)F)n2)CC1` [Example 317, N-[3-[5-chloro-2-(difluoromethoxy)phenyl]-1-[2-[4-(2-methylpropyl)piperazin-1-yl]-2-oxoethyl]-1H-pyrazol-4-yl]pyrazolo[1,5-a]pyrimidine-3-carboxamide], in assay [1], the EC50 came out at 0.0229 µM. The results for the Ki in assay [2] and in assay [3] were 0.64 nM and 1.16 nM, respectively.
In the case of `O=C(O)CNC1CCN(C(=O)Cn2cc(NC(=O)c3cnn4cccnc34)c(-c3cc(Cl)ccc3OC(F)F)n2)CC1` [Example 365, 2-[[1-(2-[3-[5-chloro-2-(difluoromethoxy)phenyl]-4-[pyrazolo[1,5-a]pyrimidine-3-amido]-1H-pyrazol-1-yl]acetyl)piperidin-4-yl]amino]acetic acid], in assay [1], the EC50 came out at 7.56 µM. In addition, the Ki in assay [2] was 0.41 nM; in assay [3], 0.55 nM.
For the molecule `O=C1CC(N2CCN(C(=O)Cn3cc(NC(=O)c4cnn5cccnc45)c(-c4cc(Cl)ccc4OC(F)F)n3)CC2)CO1` (stereo not drawn) [Example 392, N-[3-[5-chloro-2-(difluoromethoxy)phenyl]-1-[2-oxo-2-[4-(5-oxooxolan-3-yl)piperazin-1-yl]ethyl]-1H-pyrazol-4-yl]pyrazolo[1,5-a]pyrimidine-3-carboxamide], in assay [1], the EC50 amounted to 0.0261 µM. The Ki came out at 0.4 nM in assay [2] and 0.77 nM in assay [3].
As to `O=C(Nc1cn(CC(=O)N2CCC(N3C[C@@H]4C[C@H]3CO4)CC2)nc1-c1cc(Cl)ccc1OC(F)F)c1cnn2cccnc12` [Example 447, N-(1-(2-(4-((1S,4S)-5-oxa-2-aza-bicyclo[2.2.1]heptan-2-yl)piperidin-1-yl)-2-oxoethyl)-3-(5-chloro-2-(difluoromethoxy)phenyl)-1H-pyrazol-4-yl)pyrazolo[1,5-a]pyrimidine-3-carboxamide], the EC50 in assay [1] is 0.0161 µM. For the same molecule, the results for the Ki in assay [2] and in assay [3] were 0.49 nM and 1.25 nM, respectively.
On the same counts, the results for `N#CC1CN(C2CCN(C(=O)Cn3cc(NC(=O)c4cnn5cccnc45)c(-c4cc(Cl)ccc4OC(F)F)n3)CC2)C1` [Example 446, N-(3-(5-chloro-2-(difluoromethoxy)phenyl)-1-(2-(4-(3-cyanoazetidin-1-yl)piperidin-1-yl)-2-oxoethyl)-1H-pyrazol-4-yl)pyrazolo[1,5-a]pyrimidine-3-carboxamide] are 0.0121 µM, 0.45 nM and 1.3 nM.
In the case of `CC(F)(F)CNC1CCN(C(=O)Cn2cc(NC(=O)c3cnn4cccnc34)c(-c3cc(Cl)ccc3OC(F)F)n2)CC1` [Example 463, N-(3-(5-chloro-2-(difluoromethoxy)phenyl)-1-(2-(4-(2,2-difluoro-propylamino)piperidin-1-yl)-2-oxoethyl)-1H-pyrazol-4-yl)pyrazolo[1,5-a]pyrimidine-3-carboxamide], the EC50 in assay [1] was found to be 0.007 µM. Besides, the Ki came out at 0.31 nM in assay [2] and 0.7 nM in assay [3].
Consider `CN(CCC#N)C1CCC(=CCn2cc(NC(=O)c3cnn4cccnc34)c(-c3cc(Cl)ccc3OC(F)F)n2)CC1` (stereo not drawn) [Example 420, N-(3-(5-chloro-2-(difluoromethoxy)phenyl)-1-(2-(4-((2-cyanoethyl)(methyl)amino)cyclohexylidene)ethyl)-1H-pyrazol-4-yl)pyrazolo[1,5-a]pyrimidine-3-carboxamide], for which the EC50 in assay [1] worked out at 0.0301 µM. For the same molecule, the results for the inhibition constant (Ki) in assay [2] and in assay [3] were 0.57 nM and 0.81 nM, respectively.
For `CCCN1CCN(C(=O)Cn2cc(NC(=O)c3cnn4cccnc34)c(-c3cc(Cl)ccc3OC(F)F)n2)CC1` [Example 319, N-[3-[5-chloro-2-(difluoromethoxy)phenyl]-1-[2-oxo-2-(4-propylpiperazin-1-yl)ethyl]-1H-pyrazol-4-yl]pyrazolo[1,5-a]pyrimidine-3-carboxamide] the same measures were 0.0577 µM, 0.5 nM and 0.86 nM.
For `O=C(Nc1cn(CC(=O)N2CCN(CC3CCOCC3)CC2)nc1-c1cc(Cl)ccc1OC(F)F)c1cnn2cccnc12` [Example 458, N-(3-(5-chloro-2-(difluoromethoxy)phenyl)-1-(2-oxo-2-(4-((tetrahydro-2H-pyran-4-yl)methyl)piperazin-1-yl)ethyl)-1H-pyrazol-4-yl)pyrazolo[1,5-a]pyrimidine-3-carboxamide] the same measures were 0.0081 µM, 0.47 nM and 0.9 nM.
On the same counts, the results for `CN(CC1=CC(=O)OC1)C1CCN(C(=O)Cn2cc(NC(=O)c3cnn4cccnc34)c(-c3cc(Cl)ccc3OC(F)F)n2)CC1` [Example 352, N-[3-[5-chloro-2-(difluoromethoxy)phenyl]-1-[2-(4-[methyl[(5-oxo-2,5-dihydrofuran-3-yl)methyl]amino]piperidin-1-yl)-2-oxoethyl]-1H-pyrazol-4-yl]pyrazolo[1,5-a]pyrimidine-3-carboxamide] are 0.0124 µM, 0.33 nM and 0.75 nM.
